According to article PMC10033419, “Blocking NS3–NS4B interaction inhibits dengue virus in non-human primates” (Nature, 2023):
“And” between values parts separate entries of the source, which are not always exact repeats. Identical values can stand only once. Like-named read-outs stand apart in the source and are kept apart here.

Legend:
[1] = both, Indian-origin, rhesus monkey, in vivo, po
[2] = test system: subgenomic DENV-2/16681 reporter replicon (WT or NS4B mutants); experiment: microbe, parasite or virus in culture; assay type: cell-based; conditions: for FC: fold change of EC50 vs WT
[3] = test system: DENV-1/45AZ5; experiment: NHP DENV-1 study, IgM/IgG ELISA; conditions: for IgG ELISA Titer / IgM ELISA Titer: Negative = 100

Compound: COc1cc(N[C@H](C(=O)c2c[nH]c3ccc(OC(F)(F)F)cc23)c2ccc(Cl)cc2OC)cc(S(C)(=O)=O)c1 [JNJ-1802]
- Tmax ([1]; 0.01 mg/kg): 24 h
- Cmax ([1]; 0.18 mg/kg): 25.3 ± 6.7 ng/mL
- Tmax ([1]; 3 mg/kg): up to 24 h
- EC50 ([2]; Dengue virus, DENV2, NS4B L94F_V91A_T108I replicon SDM210002): 2380 nM
- EC50 ([2]; NS4B A222S replicon SDM200008, read-out: EC50): 0.35 nM
- EC50 ([2]; NS4B F237Y replicon SDM140022, Huh7 transient, listed as 64281802-AAA, read-out: EC50): 7.9 nM and 11 nM and 9.2 nM
- EC50 ([2]; NS4B L94F_V91A_T108I replicon SDM210002, listed as 64281802-AAA): 2350 nM and 2290 nM
- EC50 ([2]; NS4B V91A replicon SDM140014, Huh7 transient, listed as 64281802-AAA, read-out: EC50): 40 nM and 47 nM and 58 nM and 50 nM
- EC50 ([2]; NS4B V219A replicon SDM200007, listed as 64281802-AAA, read-out: EC50): 0.6 nM and 0.52 nM and 0.63 nM and 0.92 nM and 0.78 nM
- EC50 ([2]; WT replicon pFK-sgDVs-R2A-SDM120005, Huh7 transient): 0.33 nM
- FC ([2]; NS4B A222S, listed as 64281802-AAA): 1.1 and 1.2 and 0.9 and 1.3 and 1.4
- FC ([2]; NS4B F237Y, listed as 64281802-AAA): 46.0 and 32.0 and 23.0
- FC ([2]; NS4B L94F_V91A_T108I, listed as 64281802-AAA): 3872.3 and 4594.9 and 4248.1
- FC ([2]; NS4B M183T, listed as 64281802-AAA): 1.1 and 1.2 and 1.6 and 1.4
- FC ([2]; NS4B S85L, listed as 64281802-AAA): 3.1 and 3.4 and 3.6 and 4.3 and 4.0
- FC ([2]; NS4B T195A, listed as 64281802-AAA): 2.9 and 3.2 and 2.4 and 3.7 and 3.5
- FC ([2]; NS4B V91A, listed as 64281802-AAA): 232.0 and 190.0 and 127.0 and 176.0
- FC ([2]; NS4B V219A, listed as 64281802-AAA): 1.8 and 1.9 and 1.5 and 1.4
- IgM and IgG responses ([3]; 6 mg per kg per day q.d.): undetectable
- IgG ELISA Titer ([3]; animal R7, Day 0): 100
- IgM ELISA Titer ([3]; animal R7, Day 0): 100
- IgG ELISA Titer ([3]; animal R7, Day 5): 100
- IgM ELISA Titer ([3]; animal R7, Day 5): 100
- IgG ELISA Titer ([3]; animal R7, Day 7): 100
- IgM ELISA Titer ([3]; animal R7, Day 7): 100
- IgG ELISA Titer ([3]; animal R7, Day 9): 100
- IgM ELISA Titer ([3]; animal R7, Day 9): 100
- IgG ELISA Titer ([3]; animal R7, Day 11): 100
- IgM ELISA Titer ([3]; animal R7, Day 11): 100
- IgG ELISA Titer ([3]; animal R7, Day 14): 100
- IgM ELISA Titer ([3]; animal R7, Day 14): 100
- IgG ELISA Titer ([3]; animal R7, Day 29): 100
- IgM ELISA Titer ([3]; animal R7, Day 29): 100
- IgG ELISA Titer ([3]; animal R8, Day 0): 100
- IgM ELISA Titer ([3]; animal R8, Day 0): 100
- IgG ELISA Titer ([3]; animal R8, Day 5): 100
- IgM ELISA Titer ([3]; animal R8, Day 5): 100
- IgG ELISA Titer ([3]; animal R8, Day 7): 100
- IgM ELISA Titer ([3]; animal R8, Day 7): 100
- IgG ELISA Titer ([3]; animal R8, Day 9): 100
- IgM ELISA Titer ([3]; animal R8, Day 9): 100
- IgG ELISA Titer ([3]; animal R8, Day 11): 100
- IgM ELISA Titer ([3]; animal R8, Day 11): 100
- IgG ELISA Titer ([3]; animal R8, Day 14): 100
- IgM ELISA Titer ([3]; animal R8, Day 14): 100
- IgG ELISA Titer ([3]; animal R8, Day 29): 100
- IgM ELISA Titer ([3]; animal R8, Day 29): 100
- IgG ELISA Titer ([3]; animal R9, Day 0): 100
- IgM ELISA Titer ([3]; animal R9, Day 0): 100
- IgG ELISA Titer ([3]; animal R9, Day 5): 100
- IgM ELISA Titer ([3]; animal R9, Day 5): 100
- IgG ELISA Titer ([3]; animal R9, Day 7): 100
- IgM ELISA Titer ([3]; animal R9, Day 7): 100
- IgG ELISA Titer ([3]; animal R9, Day 9): 100
- IgM ELISA Titer ([3]; animal R9, Day 9): 100
- IgG ELISA Titer ([3]; animal R9, Day 11): 100
- IgM ELISA Titer ([3]; animal R9, Day 11): 100
- IgG ELISA Titer ([3]; animal R9, Day 14): 100
- IgM ELISA Titer ([3]; animal R9, Day 14): 100
- IgG ELISA Titer ([3]; animal R9, Day 29): 100
- IgM ELISA Titer ([3]; animal R9, Day 29): 100
- IgG ELISA Titer ([3]; animal R10, Day 0): 100
- IgM ELISA Titer ([3]; animal R10, Day 0): 100
- IgG ELISA Titer ([3]; animal R10, Day 5): 100
- IgM ELISA Titer ([3]; animal R10, Day 5): 100
- IgG ELISA Titer ([3]; animal R10, Day 7): 100
